From ChEMBL document CHEMBL3351714 (Bioorg Med Chem, 2014) come the findings set out here.

Chain of D(3) dopamine receptor (P35462 whole entry): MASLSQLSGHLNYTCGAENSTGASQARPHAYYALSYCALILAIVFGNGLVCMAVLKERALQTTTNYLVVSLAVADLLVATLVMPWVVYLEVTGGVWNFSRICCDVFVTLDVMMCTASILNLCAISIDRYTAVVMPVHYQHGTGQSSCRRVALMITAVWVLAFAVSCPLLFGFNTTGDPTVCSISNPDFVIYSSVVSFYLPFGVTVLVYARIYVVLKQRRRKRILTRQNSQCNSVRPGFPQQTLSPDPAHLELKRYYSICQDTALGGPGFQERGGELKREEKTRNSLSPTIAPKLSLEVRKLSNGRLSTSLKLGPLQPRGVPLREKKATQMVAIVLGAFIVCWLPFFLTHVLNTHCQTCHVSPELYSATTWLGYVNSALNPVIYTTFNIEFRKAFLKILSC

The target of the first experiment is T1, D(1A) dopamine receptor (Homo sapiens, UniProt P21728). In words: Displacement of [3H]SCH23390 from D1 receptor (unknown origin) transfected in HEK293T cells at 10 uM after 50 mins by liquid scintillation counting analysis. Type of experiment: cell-based. The settings on record: HEK-293T. Background: In a radioligand displacement assay an active substance lowers the binding of a labelled ligand.
T1 sequence (P21728 whole entry): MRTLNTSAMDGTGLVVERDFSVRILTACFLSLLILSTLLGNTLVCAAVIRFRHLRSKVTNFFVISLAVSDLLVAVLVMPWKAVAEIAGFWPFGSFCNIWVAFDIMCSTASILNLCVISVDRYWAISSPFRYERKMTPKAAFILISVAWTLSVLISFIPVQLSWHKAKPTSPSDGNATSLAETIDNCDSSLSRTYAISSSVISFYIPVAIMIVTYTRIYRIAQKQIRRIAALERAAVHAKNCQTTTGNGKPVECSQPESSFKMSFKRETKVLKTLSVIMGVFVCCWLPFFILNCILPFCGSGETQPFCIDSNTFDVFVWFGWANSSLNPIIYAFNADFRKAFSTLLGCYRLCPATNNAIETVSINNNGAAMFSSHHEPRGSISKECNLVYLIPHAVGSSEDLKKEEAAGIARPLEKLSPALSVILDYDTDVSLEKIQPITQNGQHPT
`CCCCCc1cc2c(s1)C[C@H]1c3cc(O)c(OC)cc3CCN1C2`: the inhibition came out at 94.7%.
Still for that read-out and setting: then `COc1cc2c(cc1O)[C@@H]1Cc3sc(CC(C)(C)C)cc3CN1CC2`, with 93.8%; and `COc1cc2c(cc1O)[C@@H]1Cc3sc(CC4CCC4)cc3CN1CC2`, with 97.1%; and `CCCCc1cc2c(s1)C[C@H]1c3cc(O)c(OC)cc3CCN1C2`, with 98.6%.
On to `COc1cc2c(cc1O)[C@@H]1Cc3sccc3CN1CC2`, for which the inhibition worked out at 98.1%.
Consider `COc1cc2c(cc1O)[C@@H]1Cc3sc(CCCCl)cc3CN1CC2`, for which the inhibition stood at 94.3%.
On the same count and under the same terms, in the case of `COc1cc2c(cc1O)[C@@H]1Cc3sc(CC(C)Cl)cc3CN1CC2` (some centres undefined) it was 91.5%.
Turning to `CCC(C)Cc1cc2c(s1)C[C@H]1c3cc(O)c(OC)cc3CCN1C2` (some centres undefined), the inhibition came out at 92%.

The next experiment has as its target T1, D(1A) dopamine receptor. In words: Displacement of [3H]SCH23390 from D1 receptor (unknown origin) transfected in HEK293T cells after 50 mins by liquid scintillation counting analysis.
Conditions: not given
The class given is cell-based, HEK-293T.
Compound `CCCCCc1cc2c(s1)C[C@H]1c3cc(O)c(OC)cc3CCN1C2` had an inhibitory constant (Ki) of 133 nM.
Turning to `COc1cc2c(cc1O)[C@@H]1Cc3sc(CC(C)(C)C)cc3CN1CC2`, the inhibition constant Ki worked out at 634 nM.
As to `COc1cc2c(cc1O)[C@@H]1Cc3sc(CC4CCC4)cc3CN1CC2`, the affinity, expressed as Ki, was 379 nM.
The same measure, in the same setting: then `COc1cc2c(cc1O)[C@@H]1Cc3ccc(O)c(OC)c3CN1CC2` [STEPHOLIDINE], with 12.3 nM; and `CCCCc1cc2c(s1)C[C@H]1c3cc(O)c(OC)cc3CCN1C2`, with 62.2 nM.
Consider `COc1cc2c(cc1O)[C@@H]1Cc3sccc3CN1CC2`, for which the inhibition constant Ki came to 87 nM.
`COc1cc2c(cc1O)[C@@H]1Cc3sc(CCCCl)cc3CN1CC2` displayed an inhibitory constant (Ki) of 77 nM.
As to `COc1cc2c(cc1O)[C@@H]1Cc3sc(CC(C)Cl)cc3CN1CC2` (some centres undefined), the inhibitory constant (Ki) came out at 45.8 nM.
Still for that read-out and setting: then `CCC(C)Cc1cc2c(s1)C[C@H]1c3cc(O)c(OC)cc3CCN1C2` (some centres undefined), with 403 nM.

For a further experiment, the target named is T2, D(2) dopamine receptor (Homo sapiens, UniProt P14416). In words: Displacement of [3H]Spiperone from D2 receptor (unknown origin) transfected in HEK293T cells at 10 uM after 50 mins by liquid scintillation counting analysis. Type of experiment: cell-based. Conditions: HEK-293T.
T2 sequence (P14416 whole entry): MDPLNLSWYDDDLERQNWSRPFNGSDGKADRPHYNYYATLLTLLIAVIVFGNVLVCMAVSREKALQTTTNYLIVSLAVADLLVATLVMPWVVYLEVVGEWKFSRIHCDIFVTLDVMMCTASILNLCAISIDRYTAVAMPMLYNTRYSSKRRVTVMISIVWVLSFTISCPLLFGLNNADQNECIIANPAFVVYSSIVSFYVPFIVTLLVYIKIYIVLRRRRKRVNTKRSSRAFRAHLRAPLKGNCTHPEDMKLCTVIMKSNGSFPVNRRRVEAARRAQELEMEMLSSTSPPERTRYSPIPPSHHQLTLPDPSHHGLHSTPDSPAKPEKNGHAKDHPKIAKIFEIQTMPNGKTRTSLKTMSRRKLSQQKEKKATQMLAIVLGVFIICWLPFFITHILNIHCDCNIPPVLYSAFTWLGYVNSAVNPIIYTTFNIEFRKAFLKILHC
Take `CCCCCc1cc2c(s1)C[C@H]1c3cc(O)c(OC)cc3CCN1C2`: the inhibition turned out to be 103%.
Same read-out and setting: then `COc1cc2c(cc1O)[C@@H]1Cc3sc(CC(C)(C)C)cc3CN1CC2`, with 97%; and `COc1cc2c(cc1O)[C@@H]1Cc3sc(CC4CCC4)cc3CN1CC2`, with 98.7%; and `CCCCc1cc2c(s1)C[C@H]1c3cc(O)c(OC)cc3CCN1C2`, with 99.5%.
`COc1cc2c(cc1O)[C@@H]1Cc3sccc3CN1CC2`: the inhibition came to 95.8%.
Still for that read-out and setting: in the case of `COc1cc2c(cc1O)[C@@H]1Cc3sc(CCCCl)cc3CN1CC2` it was 97.2%; in that of `COc1cc2c(cc1O)[C@@H]1Cc3sc(CC(C)Cl)cc3CN1CC2` (some centres undefined), 105%; in that of `CCC(C)Cc1cc2c(s1)C[C@H]1c3cc(O)c(OC)cc3CCN1C2` (some centres undefined), 102%.

The target in another experiment is T2, D(2) dopamine receptor. The experiment is described as follows: Displacement of [3H]Spiperone from D2 receptor (unknown origin) transfected in HEK293T cells after 50 mins by liquid scintillation counting analysis. Type of experiment: cell-based, HEK-293T.
Conditions: not given
With `CCCCCc1cc2c(s1)C[C@H]1c3cc(O)c(OC)cc3CCN1C2`, the Ki is 46.7 nM.
Same read-out and setting: in the case of `COc1cc2c(cc1O)[C@@H]1Cc3sc(CC(C)(C)C)cc3CN1CC2` it was 190 nM; in that of `COc1cc2c(cc1O)[C@@H]1Cc3sc(CC4CCC4)cc3CN1CC2`, 34.2 nM; in that of `COc1cc2c(cc1O)[C@@H]1Cc3ccc(O)c(OC)c3CN1CC2` [STEPHOLIDINE], 105 nM.
`CCCCc1cc2c(s1)C[C@H]1c3cc(O)c(OC)cc3CCN1C2` had an inhibitory constant (Ki) of 17.6 nM. Compared with the last compound, the Ki is about 6-fold lower.
On the same count and under the same terms, then `COc1cc2c(cc1O)[C@@H]1Cc3sccc3CN1CC2`, with 88 nM.
On the same count and under the same terms, then `COc1cc2c(cc1O)[C@@H]1Cc3sc(CCCCl)cc3CN1CC2`, with 18.4 nM; and `COc1cc2c(cc1O)[C@@H]1Cc3sc(CC(C)Cl)cc3CN1CC2` (some centres undefined), with 16.5 nM.
On the same count and under the same terms, in the case of `CCC(C)Cc1cc2c(s1)C[C@H]1c3cc(O)c(OC)cc3CCN1C2` (some centres undefined) it was 29.1 nM.

A further experiment deals with T3, 5-hydroxytryptamine receptor 1A (Homo sapiens) (UniProt P08908).
T3 sequence (whole entry): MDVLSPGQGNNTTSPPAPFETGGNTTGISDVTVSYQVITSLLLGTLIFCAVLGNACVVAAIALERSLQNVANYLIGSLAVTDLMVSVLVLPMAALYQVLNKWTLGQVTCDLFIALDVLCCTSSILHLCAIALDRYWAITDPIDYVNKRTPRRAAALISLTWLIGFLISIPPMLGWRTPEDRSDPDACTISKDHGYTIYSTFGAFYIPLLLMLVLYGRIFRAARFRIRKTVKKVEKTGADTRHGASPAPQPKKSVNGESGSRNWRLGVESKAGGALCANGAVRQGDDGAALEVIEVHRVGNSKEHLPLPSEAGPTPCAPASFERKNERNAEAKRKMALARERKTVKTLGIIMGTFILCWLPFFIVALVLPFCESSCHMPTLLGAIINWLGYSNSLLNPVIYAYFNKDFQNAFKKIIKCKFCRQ
The experiment is described as follows: Displacement of [3H]8-OH-DPAT from 5HT1A receptor (unknown origin) transfected in HEK293T cells at 10 uM after 50 mins by liquid scintillation counting analysis. Type of experiment: cell-based. Conditions: HEK-293T.
As for `CCCCCc1cc2c(s1)C[C@H]1c3cc(O)c(OC)cc3CCN1C2`, the inhibition stood at 81.7%.
Consider `COc1cc2c(cc1O)[C@@H]1Cc3sc(CC(C)(C)C)cc3CN1CC2`, for which the inhibition is 79.8%.
With `COc1cc2c(cc1O)[C@@H]1Cc3sc(CC4CCC4)cc3CN1CC2`, the inhibition was 93.7%.
The same measure, in the same setting: in the case of `CCCCc1cc2c(s1)C[C@H]1c3cc(O)c(OC)cc3CCN1C2` it was 90%.
As to `COc1cc2c(cc1O)[C@@H]1Cc3sccc3CN1CC2`, the inhibition came out at 89.7%.
For the compound `COc1cc2c(cc1O)[C@@H]1Cc3sc(CCCCl)cc3CN1CC2`, the inhibition is 92.2%.
Consider `COc1cc2c(cc1O)[C@@H]1Cc3sc(CC(C)Cl)cc3CN1CC2` (some centres undefined), for which the inhibition came out at 91.6%.
Consider `CCC(C)Cc1cc2c(s1)C[C@H]1c3cc(O)c(OC)cc3CCN1C2` (some centres undefined), for which the inhibition worked out at 69.4%.

The target of a further experiment is T4, 5-hydroxytryptamine receptor 1A (Homo sapiens, UniProt P08908).
T4 sequence (P08908 whole entry): T3 sequence (whole entry)
The experiment is described as follows: Displacement of [3H]8-OH-DPAT from 5HT1A receptor (unknown origin) transfected in HEK293T cells after 50 mins by liquid scintillation counting analysis. The class given is cell-based, HEK-293T.
Conditions: not given
As to `COc1cc2c(cc1O)[C@@H]1Cc3sc(CC4CCC4)cc3CN1CC2`, the affinity, expressed as Ki, was 778 nM.
Take `COc1cc2c(cc1O)[C@@H]1Cc3sc(CC(C)Cl)cc3CN1CC2` (some centres undefined): the affinity corresponds to a Ki of 285 nM.

The target of a further experiment is 5-hydroxytryptamine receptor 2A (Homo sapiens) (UniProt P28223). The experiment is described as follows: Displacement of [3H]Ketanserin from 5HT2A receptor (unknown origin) transfected in HEK293T cells at 10 uM after 15 mins by liquid scintillation counting analysis. Type of experiment: cell-based. The settings on record: HEK-293T.
Chain of 5-hydroxytryptamine receptor 2A (Homo sapiens) (P28223 whole entry): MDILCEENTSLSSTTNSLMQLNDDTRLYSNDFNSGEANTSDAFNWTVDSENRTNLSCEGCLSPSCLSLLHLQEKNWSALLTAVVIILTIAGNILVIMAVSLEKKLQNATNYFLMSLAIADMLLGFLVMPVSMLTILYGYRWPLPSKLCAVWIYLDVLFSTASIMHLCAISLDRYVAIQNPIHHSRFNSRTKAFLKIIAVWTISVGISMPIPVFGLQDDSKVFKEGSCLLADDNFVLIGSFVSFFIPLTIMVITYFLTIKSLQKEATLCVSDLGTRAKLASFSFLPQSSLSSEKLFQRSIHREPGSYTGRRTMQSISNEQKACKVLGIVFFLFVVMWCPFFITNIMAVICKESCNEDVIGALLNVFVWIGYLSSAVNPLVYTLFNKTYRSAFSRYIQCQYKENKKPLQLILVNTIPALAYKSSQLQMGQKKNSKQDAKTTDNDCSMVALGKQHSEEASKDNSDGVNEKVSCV
On to `CCCCCc1cc2c(s1)C[C@H]1c3cc(O)c(OC)cc3CCN1C2`, for which the inhibition came out at 45.9%.
For the compound `COc1cc2c(cc1O)[C@@H]1Cc3sc(CC(C)(C)C)cc3CN1CC2`, the inhibition was 19.3%.
The same measure, in the same setting: then `COc1cc2c(cc1O)[C@@H]1Cc3sc(CC4CCC4)cc3CN1CC2`, with 44.9%.
Same read-out and setting: then `CCCCc1cc2c(s1)C[C@H]1c3cc(O)c(OC)cc3CCN1C2`, with 53.3%; and `COc1cc2c(cc1O)[C@@H]1Cc3sccc3CN1CC2`, with 82.3%.
Still for that read-out and setting: in the case of `COc1cc2c(cc1O)[C@@H]1Cc3sc(CCCCl)cc3CN1CC2` it was 62.1%; in that of `COc1cc2c(cc1O)[C@@H]1Cc3sc(CC(C)Cl)cc3CN1CC2` (some centres undefined), 52.1%.
In the case of `CCC(C)Cc1cc2c(s1)C[C@H]1c3cc(O)c(OC)cc3CCN1C2` (some centres undefined), the inhibition amounted to 33.4%.

The next experiment addresses D(3) dopamine receptor (Homo sapiens, UniProt P35462). In words: Displacement of [3H]Spiperone from D3 receptor (unknown origin) transfected in HEK293T cells after 50 mins by liquid scintillation counting analysis. The class given is cell-based, HEK-293T.
Conditions: not given
With `COc1cc2c(cc1O)[C@@H]1Cc3ccc(O)c(OC)c3CN1CC2` [STEPHOLIDINE], the affinity, expressed as Ki, was 90 nM. That is a double-digit nanomolar value.
The same measure, in the same setting: in the case of `CCCCc1cc2c(s1)C[C@H]1c3cc(O)c(OC)cc3CCN1C2` it was 39.9 nM.

A further experiment has as its target T1, D(1A) dopamine receptor. In words: Agonist activity at D1 receptor (unknown origin) after 40 mins by [35S]GTP-gammaS binding assay. Type of experiment: functional.
Conditions: not given
For orientation: GTPγS is a poorly hydrolysed GTP analogue; its binding reports G protein activation.
`COc1cc2c(cc1O)[C@@H]1Cc3ccc(O)c(OC)c3CN1CC2` [STEPHOLIDINE]: a half-maximal effect (EC50) was put at 23 nM.

Another experiment has as its target T1, D(1A) dopamine receptor. In words: Antagonist activity at D1 receptor (unknown origin) after 40 mins by [35S]GTP-gammaS binding assay in presence of SKF38393. The class given is functional.
Conditions: not given
On to `CCCCc1cc2c(s1)C[C@H]1c3cc(O)c(OC)cc3CCN1C2`, for which the 50% inhibitory concentration (IC50) stood at 600 nM.

Another experiment concerns the target T2, D(2) dopamine receptor. In words: Antagonist activity at D2 receptor (unknown origin) after 40 mins by [35S]GTP-gammaS binding assay in presence of quinpirole. The class given is functional.
Conditions: not given
Consider `COc1cc2c(cc1O)[C@@H]1Cc3ccc(O)c(OC)c3CN1CC2` [STEPHOLIDINE], for which the IC50 stood at 4380 nM.
In the case of `CCCCc1cc2c(s1)C[C@H]1c3cc(O)c(OC)cc3CCN1C2`, the IC50 worked out at 910 nM.

The next experiment concerns the target T4, 5-hydroxytryptamine receptor 1A. In words: Agonist activity at 5HT1A receptor (unknown origin) after 20 mins by [35S]GTP-gammaS binding assay. Type of experiment: functional.
Conditions: not given
As to `CCCCc1cc2c(s1)C[C@H]1c3cc(O)c(OC)cc3CCN1C2`, the midpoint of the response, the EC50, lay at 850 nM.

As a reminder, the inhibition is the drop in the measured response relative to a control, in per cent. The term Ki denotes the dissociation constant of the complex between target and ligand, obtained from inhibition or displacement. A low value points to tighter binding. The term EC50 denotes the concentration giving half of the maximal effect. The IC50 is the point on the concentration scale where inhibition reaches its midpoint.
